The values below come from ChEMBL document CHEMBL3769355, “Fragment-Based Design of Selective Nanomolar Ligands of the CREBBP Bromodomain” (J Med Chem, 2016).

The source made the active and inactive calls. The calls are words filed in the database; no cut-off is given here. Some results are limits rather than exact numbers.

Experiment [1] addresses T1, CREB-binding protein (Homo sapiens, UniProt Q92793). As to the kind of experiment: Inhibition of human recombinant GST-tagged CREBBP using non acetylated ligand 1 as substrate incubated for 2 hrs by TR-FRET assay.
Target sequence in this assay (Q92793 whole entry): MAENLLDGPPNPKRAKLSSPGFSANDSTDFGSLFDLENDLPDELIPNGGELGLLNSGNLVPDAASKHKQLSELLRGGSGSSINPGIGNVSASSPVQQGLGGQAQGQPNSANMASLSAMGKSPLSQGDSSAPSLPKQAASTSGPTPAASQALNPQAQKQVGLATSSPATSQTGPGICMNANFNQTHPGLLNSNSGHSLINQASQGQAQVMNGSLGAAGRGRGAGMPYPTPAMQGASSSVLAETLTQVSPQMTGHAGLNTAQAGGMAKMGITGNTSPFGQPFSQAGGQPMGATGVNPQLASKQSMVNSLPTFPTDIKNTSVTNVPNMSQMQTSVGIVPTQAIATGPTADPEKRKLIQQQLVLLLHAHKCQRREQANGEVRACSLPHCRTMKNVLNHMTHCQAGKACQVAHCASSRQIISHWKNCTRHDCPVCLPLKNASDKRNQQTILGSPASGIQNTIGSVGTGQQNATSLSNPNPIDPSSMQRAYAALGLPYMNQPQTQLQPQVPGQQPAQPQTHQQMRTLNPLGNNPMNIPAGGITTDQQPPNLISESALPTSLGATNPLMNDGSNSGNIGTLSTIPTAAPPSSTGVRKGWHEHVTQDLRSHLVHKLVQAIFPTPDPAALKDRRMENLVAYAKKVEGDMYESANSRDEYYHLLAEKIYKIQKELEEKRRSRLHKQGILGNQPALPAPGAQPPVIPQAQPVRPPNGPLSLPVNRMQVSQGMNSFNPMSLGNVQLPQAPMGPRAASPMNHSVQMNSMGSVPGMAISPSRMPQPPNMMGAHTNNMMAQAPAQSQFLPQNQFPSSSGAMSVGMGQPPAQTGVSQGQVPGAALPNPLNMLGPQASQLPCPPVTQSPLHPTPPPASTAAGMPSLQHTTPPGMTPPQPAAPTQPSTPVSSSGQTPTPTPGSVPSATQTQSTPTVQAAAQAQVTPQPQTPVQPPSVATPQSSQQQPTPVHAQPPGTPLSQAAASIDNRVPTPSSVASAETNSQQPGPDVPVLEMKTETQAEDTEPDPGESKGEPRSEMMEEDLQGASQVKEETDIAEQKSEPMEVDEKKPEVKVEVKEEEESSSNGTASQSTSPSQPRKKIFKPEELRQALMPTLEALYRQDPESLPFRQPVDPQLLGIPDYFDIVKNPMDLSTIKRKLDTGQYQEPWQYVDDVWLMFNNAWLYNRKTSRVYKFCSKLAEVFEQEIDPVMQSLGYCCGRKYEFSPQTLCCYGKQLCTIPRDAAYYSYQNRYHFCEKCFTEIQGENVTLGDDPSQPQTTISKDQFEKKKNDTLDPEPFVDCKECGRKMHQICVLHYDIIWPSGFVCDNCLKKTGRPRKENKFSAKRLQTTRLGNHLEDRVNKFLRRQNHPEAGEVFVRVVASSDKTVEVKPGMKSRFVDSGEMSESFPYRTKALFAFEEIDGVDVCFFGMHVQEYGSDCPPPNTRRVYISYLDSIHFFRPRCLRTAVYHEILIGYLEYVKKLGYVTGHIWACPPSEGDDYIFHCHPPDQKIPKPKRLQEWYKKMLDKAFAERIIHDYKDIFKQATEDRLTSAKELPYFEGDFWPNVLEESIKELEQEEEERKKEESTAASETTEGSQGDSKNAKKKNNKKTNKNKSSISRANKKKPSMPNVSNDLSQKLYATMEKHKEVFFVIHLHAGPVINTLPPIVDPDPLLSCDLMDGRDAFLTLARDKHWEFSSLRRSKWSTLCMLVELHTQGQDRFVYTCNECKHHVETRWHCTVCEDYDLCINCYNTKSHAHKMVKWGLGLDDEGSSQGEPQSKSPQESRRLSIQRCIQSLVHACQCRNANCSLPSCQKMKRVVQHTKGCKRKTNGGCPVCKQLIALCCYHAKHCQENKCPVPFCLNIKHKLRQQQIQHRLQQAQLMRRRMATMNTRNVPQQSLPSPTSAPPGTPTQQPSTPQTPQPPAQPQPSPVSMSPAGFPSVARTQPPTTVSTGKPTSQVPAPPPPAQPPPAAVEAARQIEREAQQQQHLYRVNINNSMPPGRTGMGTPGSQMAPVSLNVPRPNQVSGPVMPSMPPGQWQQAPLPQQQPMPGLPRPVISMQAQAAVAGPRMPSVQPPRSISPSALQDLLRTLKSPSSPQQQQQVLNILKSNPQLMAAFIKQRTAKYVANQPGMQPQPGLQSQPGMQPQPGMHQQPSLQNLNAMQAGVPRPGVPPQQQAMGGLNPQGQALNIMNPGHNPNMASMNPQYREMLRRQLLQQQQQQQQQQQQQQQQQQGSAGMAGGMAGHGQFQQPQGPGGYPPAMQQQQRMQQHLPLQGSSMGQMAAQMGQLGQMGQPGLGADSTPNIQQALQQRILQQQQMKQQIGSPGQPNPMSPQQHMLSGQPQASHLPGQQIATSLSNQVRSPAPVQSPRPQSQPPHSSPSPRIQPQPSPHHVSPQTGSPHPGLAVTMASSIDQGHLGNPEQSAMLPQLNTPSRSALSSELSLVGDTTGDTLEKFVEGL
For experiment [2], the target named is T1, CREB-binding protein. As to the kind of experiment: Binding affinity to human His-tagged CREBBP expressed in Escherichia coli BL21(DE3) cells at 100 uM by SYPRO orange staining based fluorescence thermal shift assay.
The target in experiment [3] is T2, Bromodomain-containing protein 4 (Homo sapiens, UniProt O60885). The experiment is described as follows: Binding affinity to human BRD4 bromodomain 1 expressed in Escherichia coli BL21(DE3) cells at 100 uM by SYPRO orange staining based fluorescence thermal shift assay.
Experiment [4] has as its target T1, CREB-binding protein. As to the kind of experiment: Binding affinity to human His-tagged CREBBP expressed in Escherichia coli BL21(DE3) cells by isothermal titration calorimetry. A general note: In ITC the heat of successive injections is recorded.
Target sequence in this assay (Q92793 whole entry): as above
In experiment [5] the test system is MOLM-13. As to the kind of experiment: (§1) Cytotoxicity against human MOLM13 cells assessed as assessed as growth inhibition after 48 hrs by resazurin assay. It is filed as functional.
The subject of experiment [6] is ML-2. The experiment is described as follows: (§2) Cytotoxicity against human ML2 cells assessed as growth inhibition after 48 hrs by resazurin assay. It is filed as functional.
Experiment [7] has as its target T3, Bromodomain-containing protein 2 (Homo sapiens, UniProt P25440). As to the kind of experiment: Competitive binding affinity to human BRD2 bromodomain 2 expressed in T7 phage-infected Escherichia coli BL21(DE3) cells incubated for 1 hr by bromoscan assay.
The target in experiment [8] is T2, Bromodomain-containing protein 4. As to the kind of experiment: Competitive binding affinity to human BRD4 bromodomain 1 expressed in T7 phage-infected Escherichia coli BL21(DE3) cells incubated for 1 hr by bromoscan assay.
The target in experiment [9] is T3, Bromodomain-containing protein 2. The experiment is described as follows: Competitive binding affinity to human BRD2 bromodomain 1 expressed in T7 phage-infected Escherichia coli BL21(DE3) cells incubated for 1 hr by bromoscan assay.
Experiment [10] concerns the target Histone acetyltransferase p300 (Homo sapiens) (UniProt Q09472). The experiment is described as follows: Binding affinity to EP300 (unknown origin) at 100 uM by SYPRO orange staining based fluorescence thermal shift assay.
In experiment [11] the target is T2, Bromodomain-containing protein 4. As to the kind of experiment: Competitive binding affinity to human BRD4 bromodomain 2 expressed in T7 phage-infected Escherichia coli BL21(DE3) cells incubated for 1 hr by bromoscan assay.
The target of experiment [12] is T1, CREB-binding protein. As to the kind of experiment: Competitive binding affinity to human His-tagged CREBBP expressed in T7 phage-infected Escherichia coli BL21(DE3) cells incubated for 1 hr by bromoscan assay.
Target sequence in this assay (Q92793 whole entry): as above
The subject of experiment [13] is HL-60. As to the kind of experiment: Cytotoxicity against human HL60 cells assessed as assessed as growth inhibition after 48 hrs by resazurin assay. It is filed as functional, cell-based. A general note: Alamar Blue is a resazurin reagent that responds to reducing activity.
Experiment [14] deals with T1, CREB-binding protein. As to the kind of experiment: Competitive binding affinity to human His-tagged CREBBP expressed in T7 phage-infected Escherichia coli BL21(DE3) cells at 25 uM incubated for 1 hr by bromoscan assay relative to control.
In experiment [15] the target is T1, CREB-binding protein. As to the kind of experiment: Competitive binding affinity to human His-tagged CREBBP expressed in T7 phage-infected Escherichia coli BL21(DE3) cells at 50 uM incubated for 1 hr by bromoscan assay relative to control.
Experiment [16] can be described thus: as §1. It is filed as functional. The note with it: MOLM-13, 48 h.
Experiment [17] in a line: as §2. The note with it: ML-2, 48 h. It is filed as functional.
Experiment [18] has as its target Histone acetyltransferase p300 (Homo sapiens) (UniProt Q09472). As to the kind of experiment: Binding affinity to EP300 (unknown origin) at 50 uM by SYPRO orange staining based fluorescence thermal shift assay.
Experiment [19] concerns the target T1, CREB-binding protein. The experiment is described as follows: Binding affinity to human His-tagged CREBBP expressed in Escherichia coli BL21(DE3) cells at 50 uM by SYPRO orange staining based fluorescence thermal shift assay.

Chain of Histone acetyltransferase p300 (Homo sapiens) (Q09472 whole entry): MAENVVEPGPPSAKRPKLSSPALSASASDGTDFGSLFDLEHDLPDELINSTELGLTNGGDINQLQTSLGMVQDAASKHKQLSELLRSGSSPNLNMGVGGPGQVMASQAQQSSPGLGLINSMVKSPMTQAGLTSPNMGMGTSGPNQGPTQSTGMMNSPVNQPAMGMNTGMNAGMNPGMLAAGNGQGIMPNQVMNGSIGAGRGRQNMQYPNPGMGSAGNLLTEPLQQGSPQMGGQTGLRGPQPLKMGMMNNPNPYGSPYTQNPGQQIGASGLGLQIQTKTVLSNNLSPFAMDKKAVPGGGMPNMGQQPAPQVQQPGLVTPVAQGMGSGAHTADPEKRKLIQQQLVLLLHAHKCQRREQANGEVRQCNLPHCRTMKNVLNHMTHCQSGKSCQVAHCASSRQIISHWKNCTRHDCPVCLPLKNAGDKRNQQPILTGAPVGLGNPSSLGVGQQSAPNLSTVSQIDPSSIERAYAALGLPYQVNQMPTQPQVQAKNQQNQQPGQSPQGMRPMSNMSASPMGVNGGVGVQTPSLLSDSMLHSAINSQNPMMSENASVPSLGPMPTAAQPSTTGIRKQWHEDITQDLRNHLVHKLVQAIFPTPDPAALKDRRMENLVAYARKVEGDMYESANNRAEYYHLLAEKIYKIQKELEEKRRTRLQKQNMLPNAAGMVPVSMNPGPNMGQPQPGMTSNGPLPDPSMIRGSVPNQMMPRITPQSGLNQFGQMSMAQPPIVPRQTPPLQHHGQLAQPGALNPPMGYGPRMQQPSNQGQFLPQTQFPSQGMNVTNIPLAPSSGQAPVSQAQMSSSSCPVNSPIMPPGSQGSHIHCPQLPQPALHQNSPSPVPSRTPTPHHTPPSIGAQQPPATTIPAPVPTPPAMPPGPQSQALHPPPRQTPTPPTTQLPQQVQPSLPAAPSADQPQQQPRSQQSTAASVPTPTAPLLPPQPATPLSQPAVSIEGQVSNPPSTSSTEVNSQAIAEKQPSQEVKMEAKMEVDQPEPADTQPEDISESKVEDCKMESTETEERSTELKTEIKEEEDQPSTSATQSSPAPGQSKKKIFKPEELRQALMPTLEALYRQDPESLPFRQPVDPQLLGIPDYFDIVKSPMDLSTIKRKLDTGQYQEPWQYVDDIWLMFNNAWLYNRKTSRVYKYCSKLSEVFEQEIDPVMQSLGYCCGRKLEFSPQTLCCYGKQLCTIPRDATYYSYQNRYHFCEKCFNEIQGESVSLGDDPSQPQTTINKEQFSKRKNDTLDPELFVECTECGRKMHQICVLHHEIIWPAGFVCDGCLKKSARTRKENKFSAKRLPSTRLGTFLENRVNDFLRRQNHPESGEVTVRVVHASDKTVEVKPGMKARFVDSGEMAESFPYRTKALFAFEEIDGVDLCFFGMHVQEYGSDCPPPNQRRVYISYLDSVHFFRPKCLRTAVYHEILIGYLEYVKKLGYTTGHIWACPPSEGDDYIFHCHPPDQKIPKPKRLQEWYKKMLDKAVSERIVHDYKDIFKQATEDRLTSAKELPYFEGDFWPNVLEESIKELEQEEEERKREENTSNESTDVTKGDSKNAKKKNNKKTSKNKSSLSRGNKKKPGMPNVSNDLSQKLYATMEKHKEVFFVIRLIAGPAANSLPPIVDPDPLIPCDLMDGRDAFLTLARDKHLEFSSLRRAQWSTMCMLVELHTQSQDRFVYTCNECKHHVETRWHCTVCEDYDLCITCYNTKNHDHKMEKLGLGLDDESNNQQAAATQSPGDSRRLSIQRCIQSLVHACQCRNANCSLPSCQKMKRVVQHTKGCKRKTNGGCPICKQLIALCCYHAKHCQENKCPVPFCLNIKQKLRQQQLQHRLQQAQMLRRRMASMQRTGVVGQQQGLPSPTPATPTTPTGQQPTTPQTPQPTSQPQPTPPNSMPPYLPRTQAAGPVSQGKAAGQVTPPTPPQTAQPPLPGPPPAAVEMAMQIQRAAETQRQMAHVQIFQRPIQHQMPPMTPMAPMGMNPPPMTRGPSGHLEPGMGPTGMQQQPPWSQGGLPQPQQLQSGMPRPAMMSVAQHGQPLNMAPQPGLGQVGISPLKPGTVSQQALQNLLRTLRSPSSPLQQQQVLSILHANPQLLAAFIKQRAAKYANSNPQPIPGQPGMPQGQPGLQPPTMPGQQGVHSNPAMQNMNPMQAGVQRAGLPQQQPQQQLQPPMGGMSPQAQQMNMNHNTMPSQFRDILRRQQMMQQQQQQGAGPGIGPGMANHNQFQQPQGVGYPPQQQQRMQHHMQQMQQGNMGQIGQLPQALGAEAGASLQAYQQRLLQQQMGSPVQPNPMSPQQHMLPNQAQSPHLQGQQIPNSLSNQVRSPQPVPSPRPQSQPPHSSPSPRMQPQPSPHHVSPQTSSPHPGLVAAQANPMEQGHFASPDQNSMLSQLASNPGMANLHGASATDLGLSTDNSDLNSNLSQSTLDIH

For the compound `CC(=O)c1ccc(C)c(NC(=O)/C=C/C(=O)O)c1`, in [1], the IC50 was above 100 µM. In experiment [2], the ΔTm was 0.2 °C.
As for `CCOc1ccc(C(C)=O)cc1NC(=O)c1cc(COC)cc(C(=O)O)c1`, the ΔTm in experiment [3] was found to be 1.3 °C; in [2] it was 5.1 °C; in [10] it was 4.6 °C. The Kd in [4] was 0.8 µM; in experiment [7], above 50 µM; in experiment [8] it was 25 µM; in [9], above 50 µM; in [11] it was above 50 µM; in [12], 0.53 µM. Besides, the IC50 in experiment [1] turned out to be 2 µM. Also, the “growth inhibition (GI)” value in experiment [5], in experiment [6] and in [13] was “Active” each time.
With `CCOc1ccc(C(C)=O)cc1NC(=O)c1cccc(NS(=O)(=O)c2ccccc2)c1`, the ΔTm in experiment [2] was 0.5 °C; in experiment [10] it was 0.4 °C.
Compound `CC(=O)c1cccc(NC(=O)Cn2c(=O)c3ccccc3n3nc(C)cc23)c1` registered an Activity in experiment [14] of 22%.
With `CCOc1ccc(C(C)=O)cc1NC(=O)/C=C/C(=O)O`, the ΔTm in experiment [2] is 1.8 °C. The compound further returned an Activity in experiment [15] of 2.5%. In [12], this compound displayed a Kd of 4.7 µM.
Take `CCOc1ccc(C(C)=O)cc1NC(=O)c1cc(C(=O)O)cc(-c2ccoc2)c1`: the ΔTm in [3] came to 1.5 °C; in experiment [2], 5.2 °C; in [10], 5.9 °C. Further, the dissociation constant (Kd) is 0.3 µM in experiment [4]; 24 µM in experiment [7]; 9.8 µM in experiment [8]; 24 µM in experiment [9]; above 36 µM in experiment [11]; 0.17 µM in [12]. In [1], the IC50 stood at 1 µM. Further, the “growth inhibition (GI)” value in experiment [5], in [6] and in experiment [13] was “Active” each time.
Take `COc1ccc(C(C)=O)cc1NC(=O)/C=C/C(=O)O`: in [1], the IC50 stood at 60 µM. The ΔTm in experiment [2] is 1.1 °C.
For the compound `CC(=O)c1ccc(OCc2ccccc2)c(NC(=O)c2cccc(C(=O)O)c2)c1`, the ΔTm in [2] was 3.3 °C; in experiment [10] it was 2.6 °C.
With `CCOc1ccc(C(C)=O)cc1NC(=O)c1cccc(S(=O)(=O)Nc2ccccc2)c1`, in [1], the IC50 is above 10 µM. The ΔTm in experiment [2] and in experiment [10] was 0 °C in each case.
For `CCCOc1ccc(C(C)=O)cc1NC(=O)c1cccc(C(=O)O)c1`, the IC50 in experiment [1] amounted to 7.4 µM. Also, the “growth inhibition (GI)” value in [5], in experiment [6] and in experiment [13] was “Active” throughout. For the same compound, the ΔTm was determined as 3.8 °C in experiment [2] and 3.4 °C in experiment [10].
As to `CCOc1ccc(C(C)=O)cc1NC(=O)c1cc(COC2CCCCO2)cc(C(=O)O)c1` (stereo unspecified), the ΔTm in [3] turned out to be 1.7 °C; in experiment [2] it was 6 °C; in [10], 5.9 °C. Besides, the IC50 in experiment [1] is 1 µM. Moreover, the GI50 in experiment [16] was found to be 5.3 µM; in experiment [17], 14.4 µM. For the same compound, in experiment [12], the Kd came out at 0.37 µM. Moreover, in experiment [13], the “growth inhibition (GI)” value was “Active”.
For the compound `CCOc1ccc(C(C)=O)cc1NC(=O)c1cccc(C(=O)O)c1`, the values for the ΔTm in [3], in experiment [2] and in experiment [10] were 0.4 °C, 3.8 °C and 3.4 °C, respectively. Further, the Kd in experiment [4] was 2 µM; in experiment [7], above 50 µM; in experiment [8] it was above 50 µM; in experiment [9], above 50 µM; in [11], above 50 µM; in [12] it was 0.67 µM. Further, the IC50 in [1] came to 8.7 µM. Also, the “growth inhibition (GI)” value in experiment [5], in [6] and in experiment [13] was “Active” throughout.
As to `CCOc1ccc(C(C)=O)cc1NC(=O)c1cccc(C(=O)OC)c1`, the IC50 in [1] was found to be 5 µM. In addition, in experiment [2], the ΔTm came out at 2.8 °C. Further, in [12], binding was put at a Kd of 0.49 µM.
On to `CCOc1ccc(C(C)=O)cc1NC(=O)c1ccccc1C(=O)O`, for which, in [1], the IC50 turned out to be 64 µM. Further, the ΔTm in experiment [2] was found to be 1.9 °C.
Take `CC(=O)c1ccc(OCC(C)C)c(NC(=O)c2cccc(C(=O)O)c2)c1`: the “growth inhibition (GI)” value in experiment [5], in [6] and in experiment [13] was “Active” throughout. Besides, the ΔTm in [2] turned out to be 3.5 °C; in [10] it was 3 °C.
In the case of `CC(=O)c1ccc(F)c(NC(=O)/C=C/C(=O)O)c1`, the IC50 in experiment [1] is above 100 µM. The ΔTm in [2] is -0.1 °C.
Take `CCOc1ccc(C(=O)NC)cc1NC(=O)c1cccc(C(=O)O)c1`: the ΔTm in [2] was 1.1 °C. In experiment [12], the Kd stood at 37 µM.
`CC(=O)c1cccc(NC(=O)N2C[C@@H](C)O[C@@H](c3ccccc3)C2)c1`: the Activity in [15] is 9.4%.
In the case of `CCOc1ccc(C(C)=O)cc1NC(=O)C1CC1C(=O)O` (stereo unspecified), in experiment [1], the IC50 was above 100 µM. In experiment [2], the ΔTm came out at 1.1 °C.
Turning to `CC(=O)c1ccc(OCC2CC2)c(NC(=O)c2cccc(C(=O)O)c2)c1`, the “growth inhibition (GI)” value in [5], in experiment [6] and in experiment [13] was “Active” in each case. In addition, the ΔTm in experiment [2] stood at 3.4 °C; in experiment [10] it was 3.6 °C.
For the compound `CCOc1ccc(C(C)=O)cc1NC(=O)c1cc(C(=O)O)cc(-c2ccncc2)c1`, in experiment [1], the IC50 is 3 µM. For the same compound, the ΔTm in experiment [18] turned out to be 3.9 °C; in [19] it was 4.1 °C.
In turn, `CC(=O)c1cccc(NC(=O)c2c(-n3cnnn3)sc(C)c2C)c1` displayed an Activity in experiment [14] of 2%. Moreover, in experiment [12], the Kd stood at 29 µM.
Consider `CC(=O)c1cccc(NC(=O)/C=C/C(=O)O)c1`, for which the IC50 in experiment [1] was found to be 30 µM. For the same compound, the ΔTm in experiment [2] amounted to 0.1 °C.
On to `CCOc1ccc(C(C)=O)cc1C(=O)Nc1cccc(C(=O)O)c1`, for which the “growth inhibition (GI)” value in [5], in experiment [6] and in experiment [13] was “Active” throughout. In experiment [2], the ΔTm came to 3.4 °C. Also, binding in [12] was put at a Kd of 2.5 µM.
Turning to `CCOc1ccc(C(C)=O)cc1NC(=O)c1cccc(-n2cnnn2)c1`, the IC50 in [1] worked out at 7.5 µM. Besides, the ΔTm in experiment [2] was found to be 3.3 °C; in experiment [10], 2.6 °C.
As to `CC(=O)c1ccc(N2CCOCC2)c(NC(=O)c2cccc(C(=O)O)c2)c1`, the results for the ΔTm in [2] and in experiment [10] were 1.4 °C and 1.3 °C, respectively.
For the compound `CC(=O)c1ccc(C2CC2)c(NC(=O)c2cccc(C(=O)O)c2)c1`, the IC50 in experiment [1] was found to be 15 µM. Moreover, the shift in melting temperature (ΔTm) in experiment [2] and in experiment [10] was 3.1 °C throughout.
With `CCOc1ccc(C(C)=O)cc1NC(=O)c1cc(CO)cc(C(=O)O)c1`, the IC50 in experiment [1] was 3 µM. Further, the “growth inhibition (GI)” value in experiment [5], in [6] and in experiment [13] was “Active” each time. For the same compound, the figures for the ΔTm in experiment [2] and in experiment [10] were 3.8 °C and 3.7 °C, respectively.

Broadly, the IC50 is the point on the concentration scale where inhibition reaches its midpoint. The term ΔTm denotes the shift of the melting midpoint relative to a reference. The term Kd denotes the free concentration of one partner at which half of the binding sites on the other are occupied at equilibrium, for simple one-to-one binding. Higher therefore signals lower affinity. The GI50 is the concentration at which growth is held to half of that of the control.
